Source: US20220315574A1, “Beta-Arrestin-Modulating Compounds and Methods of Using Same” (Duke University, priority 2019, published 2022)
Counter-ions that a name gives are not always drawn.

What was measured:
Type in all cases: cell-based
[1] = test system: human AT1aR; test: Intracellular calcium measurement, receptor desensitization; details: AngII-induced calcium signal
Experimental: Intracellular [Ca^2+] release was measured using FLIPR Calcium 6 with the FlexStation 3 microplate reader according to the manufacturer's instructions (Molecular Devices, LLC). Briefly, HEK293 cells stably expressing human AT1aR were seeded in poly-D-lysine-coated black 96-well assay plates (35,000 cells per well) and incubated for 24 hours. On the day of experiment, cell plates were loaded with the appropriate calcium kit reagents and then treated with βarr small molecule modulators or vehicle for 30 min. Basal fluorescence (FO) was measured, agonist was applied while fluorescence (F) intensity was monitored in real time.

[2] = test system: V2R; test: BRET based receptor internalization assay; details: V2R-expressing cells stimulated with AVP
Experimental: BRET-based assays were performed to measure receptor internalization using two complementary bystander BRET-formats. First, the association of the receptor (β2V2R-RlucII or V2R-RlucII, BRET donor) with the early endosome (2×FYVE-mVenus, BRET acceptor) was directly measured following agonist stimulation as described previously (Smith, J. S. et al. C-X-C Motif Chemokine Receptor 3 Splice Variants Differentially Activate Beta-Arrestins to Regulate Downstream Signaling Pathways. Mol Pharmacol 92, 136-150, doi:10.1124/mol.117.108522 (2017)). Second, receptor internalization following agonist stimulation was determined by measuring BRET signal from labeled receptor (β2V2R-RlucII or V2R-RlucII, BRET donor) and plasma membrane component (myr-palm-mVenus, BRET acceptor). Cells were transfected with 2.5 μg V2R-RlucII and 10 μg 2×FYVE-mVenus or 2 μg of myr-palm-mVenus using FuGENE HD (Promega, Madison, Wis.) in an individual 10 cm dish. ˜24 hours post-transfection, cells were seeded in white 96-well clear-bottomed plates at a density of 75,000 cells per well. The following day cells were washed and the media was changed to Hanks' Balanced Salt Solution (HBSS) buffer supplemented with 10 mM HEPES for 1 hours at 37° C. Cells were pretreated with βarr modulating compounds (50 μM) or vehicle, then incubated for 30 min at 37° C. Cells were stimulated with increasing doses of agonist isoproterenol or arginine vasopressin (GenScript). Coelenterazine-h was added to the cells 5 min prior to BRET measurements to a final concentration of 5 μM. BRET measurements were performed using the Synergy2 (BioTek®) microplate reader with a filter set of 410/80 nm and 515/30 nm to detect the RlucII (donor) and mVenus (acceptor) light emissions, respectively. The BRET signal was determined by calculating the ratio of the light intensity emitted by the acceptor over the light intensity emitted by the donor. Net BRET was calculated using this ratio and subtracting the same ratio measured from cells expressing only the BRET donor.

[3] = molecular target: T1, βarr2 recruitment to agonist-activated β2V2R (Homo sapiens, UniProt P32121); test: DiscoveRx PathHunter β-arrestin recruitment assay in U2OS cells; details: series of compound concentrations, 30 min pretreatment, isoproterenol dose-response
T1 construct: host or cells: U2OS
T1 sequence (P32121 whole entry): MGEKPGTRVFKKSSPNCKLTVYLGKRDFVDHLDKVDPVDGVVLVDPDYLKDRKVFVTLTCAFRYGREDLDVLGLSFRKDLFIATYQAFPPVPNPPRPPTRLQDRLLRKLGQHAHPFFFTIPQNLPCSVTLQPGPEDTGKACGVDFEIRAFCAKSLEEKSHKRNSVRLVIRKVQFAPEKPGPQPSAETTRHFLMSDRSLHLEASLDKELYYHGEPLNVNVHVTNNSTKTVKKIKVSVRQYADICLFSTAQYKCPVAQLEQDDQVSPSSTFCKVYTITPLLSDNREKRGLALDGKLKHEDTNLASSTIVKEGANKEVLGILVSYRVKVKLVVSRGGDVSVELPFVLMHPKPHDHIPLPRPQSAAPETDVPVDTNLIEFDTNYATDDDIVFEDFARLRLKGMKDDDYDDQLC
Experimental: β-arrestin recruitment to the agonist-activated receptor (02V2R) was measured using the DiscoveRx PathHunter β-arrestin assay (Ahn, S. et al. Allosteric “beta-blocker” isolated from a DNA-encoded small molecule library. Proc Natl Acad Sci U SA 114, 1708-1713, doi:10.1073/pnas.1620645114 (2017)). […] Agonist-stimulated recruitment of βarr2 to the receptor results in the formation of functionally active β-gal enzyme. Addition of substrate generates a chemiluminescence signal directly correlated to the extent of recruitment. U2OS cells co-expressing β2V2R and βarr2 were plated in 96-well clear-bottomed plates at a density of 25,000 cells per well (80 μL per well), 24 hours prior to compound treatment. On the day of experiment, cells were first treated with compound or vehicle for 30 min, followed by agonist (Iso) stimulation for 60 min at 37° C. Cells were then treated with PathHunter™ detection reagents for 90 min at 37° C., and luminescence signals were measured using a CLARIOstar microplate reader (BMG Labtech Inc., Cary, N.C.).

[4] = test system: β2AR; test: FRET-based cAMP accumulation (ICUE2 HEK293 cells), receptor desensitization; details: ICUE cells pretreated with inhibitor
Experimental: The Epac2 (ICUE2) sensor contains a CFP and YFP FRET pair. HEK293 cells stably expressing the ICUE2 cells were plated in poly-D-lysine-coated black 96 well plates (Corning) at a cell density of 50,000 cells per well. 16 hours after plating, cells were PBS-washed, then incubated in HEPES-buffered saline solution (150 mM NaCl, 5 mM KCl, 1 mM MgCl2, 2 mM CaCl2, 10 mM glucose, and 10 mM HEPES, pH 7.4) for one hour.

Structure (SMILES) | desensitization of AT1aR [1] | internalization of the receptor and association with early endosomes [2] | maximal agonist induced βarr recruitment response [3] | isoproterenol-stimulated cAMP accumulation vs untreated control cells [4]
C=C1C(=O)C23[C@H](O)C1CC[C@H]2[C@]12COC3(O)[C@@H](O)[C@@H]1C(C)(C)CC[C@@H]2O [Cmpd-5, (1R,2S,10S,11R,15S,18R)-9,10,15,18-tetrahydroxy-12,12-dimethyl-6-methylidene-17-oxapentacyclo[7.6.2.15,8.01,11.02,8]octadecan-7-one] | inhibited | inhibit | significantly diminished | increased cAMP accumulation
CN(C)c1n/c(=N/Cc2ccco2)ss1 [Cmpd-30, 5-(furan-2-ylmethylimino)-N,N-dimethyl-1,2,4-dithiazol-3-amine;hydrobromide] | inhibited | inhibit | significantly diminished | increased cAMP accumulation
C=C1C(=O)OC2CC3(C)OC3CC/C(C)=C\C(OC(C)=O)C12 (stereo not drawn) [Cmpd-64, [(8Z)-3,8-dimethyl-12-methylidene-13-oxo-4,14-dioxatricyclo[9.3.0.03,5]tetradec-8-en-10-yl] acetate] | inhibited | inhibit | significantly diminished | increased cAMP accumulation
